According to PubChem BioAssay AID330 (DTP/NCI, 2004):
Where “and” joins values, the source holds several entries; their conditions need not be identical. Identical values can stand only once. Inconclusive results and toxic doses are left out.

Test system: P388 leukemia ip, CD2F1 mice, survival T/C
Assay: NCI In Vivo Anticancer Drug Screen. Data for tumor model P388 Leukemia (intraperitoneal) in CD2F1 (CDF1) mice
Details: endpoint: median survival time, higher = longer survival
Method in brief: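 Mice carrying the transplanted tumor received test compound or vehicle. Survival was recorded in each group, and the value is the treated-group measurement divided by that of the vehicle-treated control group.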

[1] = dose: 50.0 mg/kg/injection, schedule: Q01DX009 (ip), vehicle: saline with Tween-80
[2] = dose: 100.0 mg/kg/injection, schedule: Q01DX009 (ip), vehicle: saline with Tween-80
[3] = dose: 200.0 mg/kg/injection, schedule: Q01DX009 (ip), vehicle: saline with Tween-80

With `C[n+]1c2ccccc2c(Oc2c3ccccc3[n+](C)c3ccccc23)c2ccccc21` the T/C (dose: 60.0 mg/kg/injection, schedule: Q01DX005 (ip), vehicle: Klucel (hydroxypropylcellulose) (HPC)) was 91 % of control, the T/C (dose: 120.0 mg/kg/injection, schedule: Q01DX005 (ip), vehicle: Klucel (hydroxypropylcellulose) (HPC)) was 93 % of control and the T/C (dose: 240.0 mg/kg/injection, schedule: Q01DX005 (ip), vehicle: Klucel (hydroxypropylcellulose) (HPC)) was 100 % of control.
In the case of `c1cnc2c3ccncc3c3nc(-c4ccncc4)[nH]c3c2c1`, the T/C (dose: 50.0 mg/kg/injection, schedule: Q01DX005 (ip), vehicle: Klucel (hydroxypropylcellulose) (HPC)) is reported as 91 % of control, the T/C (dose: 100.0 mg/kg/injection, schedule: Q01DX005 (ip), vehicle: Klucel (hydroxypropylcellulose) (HPC)) is reported as 88 % of control and the T/C (dose: 200.0 mg/kg/injection, schedule: Q01DX005 (ip), vehicle: Klucel (hydroxypropylcellulose) (HPC)) is reported as 101 % of control.
For `CCCCCN(CCCCC)CCCCC`, the T/C (dose: 25.0 mg/kg/injection, schedule: Q01DX009 (ip), vehicle: saline with Tween-80) was 86 % of control, the T/C [1] was 98 % of control and the T/C [2] was 101 % of control. The T/C [3] was 88 % of control.
For `c1ccc2c(c1)Nc1ccccc1C1CC21` (stereo not drawn), the T/C [1] was 96 % of control, the T/C [2] was 99 % of control and the T/C [3] was 92 % of control.
In the case of `COc1cc2c(c(OC)c1OC)-c1ccc(OC)c(=O)cc1[C@@H](NC(=O)c1ccc([N+](=O)[O-])cc1)CC2`, the T/C (dose: 0.25 mg/kg/injection, schedule: Q01DX009 (ip), vehicle: Klucel (hydroxypropylcellulose) (HPC)) is reported as 109 % of control and 115 % of control, the T/C (dose: 0.5 mg/kg/injection, schedule: Q01DX009 (ip), vehicle: Klucel (hydroxypropylcellulose) (HPC)) is reported as 114 % of control and the T/C (dose: 0.78 mg/kg/injection, schedule: Q01DX009 (ip), vehicle: Klucel (hydroxypropylcellulose) (HPC)) is reported as 108 % of control. The T/C (dose: 1.0 mg/kg/injection, schedule: Q01DX009 (ip), vehicle: Klucel (hydroxypropylcellulose) (HPC)) was 114 % of control and 124 % of control, the T/C (dose: 1.56 mg/kg/injection, schedule: Q01DX009 (ip), vehicle: Klucel (hydroxypropylcellulose) (HPC)) was 112 % of control and the T/C (dose: 2.0 mg/kg/injection, schedule: Q01DX009 (ip), vehicle: Klucel (hydroxypropylcellulose) (HPC)) was 124 % of control. For the same molecule, the T/C (dose: 3.12 mg/kg/injection, schedule: Q01DX009 (ip), vehicle: Klucel (hydroxypropylcellulose) (HPC)) was 160 % of control, the T/C (dose: 4.0 mg/kg/injection, schedule: Q01DX009 (ip), vehicle: Klucel (hydroxypropylcellulose) (HPC)) was 166 % of control and the T/C (dose: 6.25 mg/kg/injection, schedule: Q01DX009 (ip), vehicle: Klucel (hydroxypropylcellulose) (HPC)) was 198 % of control.
`C=CCC(C(=O)OC)c1cc(OC)c(OC)c(OC)c1` (stereo not drawn) was tested, and the T/C (dose: 1.25 mg/kg/injection, schedule: Q01DX009 (ip), vehicle: saline) was 97 % of control, the T/C (dose: 2.5 mg/kg/injection, schedule: Q01DX009 (ip), vehicle: saline) was 100 % of control and the T/C (dose: 5.0 mg/kg/injection, schedule: Q01DX009 (ip), vehicle: saline) was 115 % of control.
In the case of `O=C1C=CC(=O)c2c1c(O)c1ccccc1c2Cl`, the T/C (dose: 6.25 mg/kg/injection, schedule: Q01DX005 (ip), vehicle: saline) is reported as 102 % of control, the T/C (dose: 12.5 mg/kg/injection, schedule: Q01DX005 (ip), vehicle: saline) is reported as 95 % of control and the T/C (dose: 25.0 mg/kg/injection, schedule: Q01DX005 (ip), vehicle: saline) is reported as 93 % of control.
For `CCOC(=O)Nc1cc2c(c(N)n1)N=C(c1ccccc1)CN2`, the T/C (dose: 2.6 mg/kg/injection, schedule: Q04DX003 (ip), vehicle: saline with Tween-80) was 119 % of control, the T/C (dose: 3.0 mg/kg/injection, schedule: Q01DX005 (ip), vehicle: saline with Tween-80) was 117 % of control and 123 % of control and the T/C (dose: 3.0 mg/kg/injection, schedule: Q01DX009 (ip), vehicle: saline with Tween-80) was 156 % of control. The T/C (dose: 6.0 mg/kg/injection, schedule: Q01DX009 (ip), vehicle: saline with Tween-80) was 105 % of control, the T/C (dose: 6.0 mg/kg/injection, schedule: Q04DX003 (ip), vehicle: saline with Tween-80) was 151 % of control and the T/C (dose: 6.25 mg/kg/injection, schedule: Q01DX001 (ip), vehicle: saline with Tween-80) was 118 % of control. The T/C (dose: 9.0 mg/kg/injection, schedule: Q04DX003 (ip), vehicle: saline with Tween-80) was 173 % of control, the T/C (dose: 12.0 mg/kg/injection, schedule: Q01DX001 (ip), vehicle: saline with Tween-80) was 151 % of control and 157 % of control and the T/C (dose: 12.5 mg/kg/injection, schedule: Q01DX001 (ip), vehicle: saline with Tween-80) was 150 % of control. For the same molecule, the T/C (dose: 18.0 mg/kg/injection, schedule: Q01DX001 (ip), vehicle: saline with Tween-80) was 168 % of control.
`O=C(O)CC(O)C(F)(F)C(F)(F)C(F)(F)F` (stereo not drawn) was tested, and the T/C (dose: 18.75 mg/kg/injection, schedule: Q04DX003 (ip), vehicle: saline) was 100 % of control, the T/C (dose: 37.5 mg/kg/injection, schedule: Q04DX003 (ip), vehicle: saline) was 95 % of control and the T/C (dose: 75.0 mg/kg/injection, schedule: Q04DX003 (ip), vehicle: saline) was 109 % of control.
In the case of `CCOc1cccc2nncn12`, the T/C (dose: 100.0 mg/kg/injection, schedule: Q01DX001 (ip), vehicle: saline) is reported as 102 % of control and the T/C (dose: 200.0 mg/kg/injection, schedule: Q01DX001 (ip), vehicle: saline) is reported as 103 % of control.
